Several values for one entry are separate records, joined by “and”; a condition that tells them apart may be missing. Equal values may be shown once. Read-outs that look alike come from different tables or passages of the source. Residues, ends and D or L forms follow the SMILES beside them. *: point of attachment. FITC = O=C1OC2(c3ccc(O)cc3Oc3cc(O)ccc32)c2ccc(NC(=S)*)cc21
Columns and labels:
[1] = test system: bEnd.3 mouse brain endothelial cells
Description: The bEnd.3 (mouse brain endothelial cell) cell line, purchased from Bioresource Collection and Research Center (BCRC, Taiwan), was used in this study. Prior to experiments, the cells were cultured in Dulbecco’s modified Eagle’s medium (DMEM; HyClone, cat. #SH30003.02) with 10% fetal bovine serum (Gibco, cat. #10437028) and 1% penicillin-streptomycin (Gibco, cat. #15140112), and were passaged every 2–3 days with 0.25% trypsin-EDTA (Gibco, cat. #25200056).
Cellular metabolic activity was measured by MTT (thiazolyl blue tetrazolium bromide) assay 24 h after treatment by normothermia (37°C), hypothermia (4°C), sodium azide (NaN3)/2-deoxy-D-glucose (2-DG), cytochalasin D, 5-(N-ethyl-N-isopropyl)-amiloride (EIPA), or methyl-beta-cyclodextrin (MβCD). In brief, MTT assay was performed with 2000 cells in culture by first replacing the cell culture medium with medium containing 0.5 mg/ml MTT (Alfa Aesar, cat. #L11939). After a 4-h incubation period to allow for MTT metabolism, the MTT-containing medium was replaced with 100 μl of dimethyl sulfoxide (DMSO; JT Baker), and the culture plate was placed on a shaker for 10 min to allow for dissolution of the violet crystal metabolites. Thereafter, the optical density of the metabolite was measured at 570 nm by an ELISA reader. The optical density of the metabolite in the hypothermia and drug treatment groups was expressed as percentage relative to the optical density of the metabolite in the normothermia and control groups, respectively.

[2] = test system: monolayer of bEnd.3 mouse brain endothelial cells; assay: Permeability across a monolayer of brain endothelial cells (in vitro BBB model); assay type: in vitro ADME; set-up: Diffusion of FITC-TAT across bEnd.3 monolayer / Diffusion of FITC-linked peptide across bEnd.3 monolayer / Diffusion of FITC-TAT across bEnd.3 monolayer, FITC-TAT + TAT / Diffusion of FITC-TAT across bEnd.3 monolayer, FITC-TAT + TATK/R>A: unit not given here; conditions: for Rate of diffusion across the monolayer compared with FITC-TAT: bEnd.3 monolayer; for Diffusion of FITC-linked peptide across bEnd.3 monolayer: fluorescence spectrophotometry
[3] = peptide 1 μM (Fig 3A), diffusion time 0.1 h, individual cultures n = 4
[4] = peptide 1 μM (Fig 3A), diffusion time 4 h, individual cultures n = 4
[5] = peptide 1 μM (Fig 3A), diffusion time 12 h, individual cultures n = 4
[6] = peptide 1 μM (Fig 3A), diffusion time 24 h, individual cultures n = 4
[7] = peptide 3 μM (Fig 3B), diffusion time 0.1 h, individual cultures n = 4
[8] = peptide 3 μM (Fig 3B), diffusion time 4 h, individual cultures n = 4
[9] = peptide 3 μM (Fig 3B), diffusion time 12 h, individual cultures n = 4
[10] = peptide 3 μM (Fig 3B), diffusion time 24 h, individual cultures n = 4
[11] = peptide 10 μM (Fig 3C), diffusion time 0.1 h, individual cultures n = 4
[12] = peptide 10 μM (Fig 3C), diffusion time 4 h, individual cultures n = 4
[13] = peptide 10 μM (Fig 3C), diffusion time 12 h, individual cultures n = 4
[14] = peptide 10 μM (Fig 3C), diffusion time 24 h, individual cultures n = 4

Molecule	Effect on cellular metabolic activity, MTT [1]	Rate of diffusion across the monolayer compared with FITC-TAT ([2]; 1 μM concentration, Fig 3A)	Rate of diffusion across the monolayer compared with FITC-TAT ([2]; 3 μM concentration, Fig 3B)	Rate of diffusion across the monolayer compared with FITC-TAT ([2]; 10 μM concentration, Fig 3C)	Diffusion of FITC-linked peptide across bEnd.3 monolayer [2, 3]	Diffusion of FITC-linked peptide across bEnd.3 monolayer [2, 4]	Diffusion of FITC-linked peptide across bEnd.3 monolayer [2, 5]	Diffusion of FITC-linked peptide across bEnd.3 monolayer [2, 6]	Diffusion of FITC-linked peptide across bEnd.3 monolayer [2, 7]	Diffusion of FITC-linked peptide across bEnd.3 monolayer [2, 8]	Diffusion of FITC-linked peptide across bEnd.3 monolayer [2, 9]	Diffusion of FITC-linked peptide across bEnd.3 monolayer [2, 10]	Diffusion of FITC-linked peptide across bEnd.3 monolayer [2, 11]	Diffusion of FITC-linked peptide across bEnd.3 monolayer [2, 12]	Diffusion of FITC-linked peptide across bEnd.3 monolayer [2, 13]	Diffusion of FITC-linked peptide across bEnd.3 monolayer [2, 14]	further results
CCN(c1nc(N)c(C(=O)N=C(N)N)nc1Cl)C(C)C [EIPA, 5-(N-ethyl-N-isopropyl)-amiloride]	markedly decreased cellular metabolic activity	–	–	–	–	–	–	–	–	–	–	–	–	–	–	–	–
C[C@H](NC(=O)[C@H](C)NC(=O)[C@H](C)NC(=O)[C@H](CCC(N)=O)NC(=O)[C@H](C)NC(=O)[C@H](C)NC(=O)[C@H](C)NC(=O)[C@H](C)NC(=O)[C@H](C)NC(=O)CNC(=O)[C@H](Cc1ccc(O)cc1)NC(=S)Nc1ccc2c(c1)C(=O)OC21c2ccc(O)cc2Oc2cc(O)ccc21)C(=O)O [FITC-TATK/R>A] ({FITC}-YGAAAAAQAAA-OH)	–	much lower rate than FITC-TAT	much lower rate than FITC-TAT	much lower rate than FITC-TAT	16.9505 and 16.508 and 16.5507 and 15.9581	28.9506 and 32.0869 and 31.9736 and 31.2514	42.2787 and 47.1236 and 45.2026 and 46.9823	65.8175 and 68.5893 and 66.6226 and 69.1937	6.156 and 4.865 and 2.668 and 3.238	19.8822 and 11.958 and 7.983 and 9.049	39.1651 and 26.1724 and 19.7108 and 16.4957	49.6596 and 34.462 and 23.6779 and 22.9503	1.811 and 1.623 and 2.572 and 1.851	18.7947 and 19.4252 and 20.5729 and 16.0903	38.7338 and 38.9661 and 39.2385 and 32.797	65.0223 and 61.702 and 66.1075 and 57.2466	Diffusion of FITC-linked peptide across bEnd.3 monolayer ([2]; peptide 10 μM alone (Fig 3D), diffusion time 0.1 h, individual cultures n = 3): 2.221 and 2.035 and 1.973; Diffusion of FITC-linked peptide across bEnd.3 monolayer ([2]; peptide 10 μM alone (Fig 3D), diffusion time 12 h, individual cultures n = 3): 29.1435 and 26.4948 and 29.3071; Diffusion of FITC-linked peptide across bEnd.3 monolayer ([2]; peptide 10 μM alone (Fig 3D), diffusion time 24 h, individual cultures n = 3): 54.4105 and 51.9054 and 56.2316
N=C(N)NCCC[C@H](NC(=O)[C@H](CCCNC(=N)N)NC(=O)[C@H](CCCCN)NC(=O)[C@H](Cc1ccc(O)cc1)NC(=O)[C@H](CCCNC(=N)N)NC(=O)[C@H](CCCNC(=N)N)NC(=O)[C@H](CCCNC(=N)N)NC(=O)[C@H](CCCNC(=N)N)NC(=O)[C@H](CCCCN)NC(=S)Nc1ccc2c(c1)C(=O)OC21c2ccc(O)cc2Oc2cc(O)ccc21)C(=O)N[C@@H](CCC(N)=O)C(=O)NCC(=O)O [FITC-TATscrambled] ({FITC}-KRRRRYKRRQG-OH)	–	marginally higher rate than FITC-TAT	rate equal to that of FITC-TAT	marginally lower than FITC-TAT	16.6121 and 16.5353 and 16.6054 and 15.9771	37.5047 and 37.4667 and 38.2192 and 36.5367	71.5027 and 70.7894 and 73.1753 and 67.019	112.675 and 114.406 and 111.607 and 110.916	5.913 and 5.203	27.0594 (2×) and 32.066 and 20.6139	76.2224 (2×) and 56.9939 and 73.6994	111.452 (2×) and 91.4132 and 89.6289	1.995 and 1.727 and 1.576 and 1.501	22.9531 and 16.5248 and 15.9626 and 15.9604	52.8508 and 41.023 and 42.3549 and 44.9043	105.008 and 91.7182 and 94.732 and 94.0226	–
C=C1[C@@H](C)[C@H]2[C@H](Cc3ccccc3)NC(=O)[C@]23[C@H](OC(C)=O)/C=C/[C@@](C)(O)C(=O)[C@@H](C)C/C=C/[C@H]3[C@@H]1O [cytochalasin D]	–	–	–	–	–	–	–	–	–	–	–	–	–	–	–	–	Effect on cellular metabolic activity, MTT ([1]; bEnd.3, pre-treatment for 30 min followed by washout, Fig 4A): had no effect on cellular metabolic activity; Effect on cellular metabolic activity, MTT ([1]; bEnd.3, sustained treatment for 24 h, Fig 4A): increased cellular metabolic activity in a concentration-dependent manner
methyl-beta-cyclodextrin [MβCD]	markedly decreased cellular metabolic activity	–	–	–	–	–	–	–	–	–	–	–	–	–	–	–	–
